Like-named read-outs stand apart in the source and are kept apart here.
Columns and labels:
Type in all cases: binding
CDK1/Cyclin E1 = CDK1/Cyclin E1 (Homo sapiens, UniProt P06493); experiment: NanoBRET live-cell target engagement, CDK1-NanoLuc/Cyclin E1 in HEK-293; settings: CDK1/E1, 10µM
CDK2/Cyclin E1 = CDK2/Cyclin E1 (Homo sapiens, UniProt P24941); experiment: NanoBRET live-cell target engagement, CDK2-NanoLuc/Cyclin E1 in HEK-293; settings: CDK2/E1
CDK3/Cyclin E1 = CDK3/Cyclin E1 (Homo sapiens, UniProt Q00526); experiment: NanoBRET live-cell target engagement, CDK3-NanoLuc/Cyclin E1 in HEK-293; settings: 10µM
CDK4/Cyclin D1 = CDK4/Cyclin D1 (Homo sapiens, UniProt P11802); experiment: NanoBRET live-cell target engagement, NanoLuc-CDK4/Cyclin D1 in HEK-293; settings: CDK4/D1
CDK5/CDK5R1 = CDK5/CDK5R1 (Homo sapiens, UniProt Q00535); experiment: NanoBRET live-cell target engagement, CDK5-NanoLuc/CDK5R1 in HEK-293; settings: CDK5/CDK5R1, 10µM
CDK6/Cyclin D1 = CDK6/Cyclin D1 (Homo sapiens, UniProt Q00534); experiment: NanoBRET live-cell target engagement, NanoLuc-CDK6/Cyclin D1 in HEK-293; settings: CDK6/D1
CDK8/Cyclin C = CDK8/Cyclin C (Homo sapiens, UniProt P49336); experiment: NanoBRET live-cell target engagement, NanoLuc-CDK8/Cyclin C in HEK-293; settings: CDK8/C, 10µM
CDK9/Cyclin K = CDK9/Cyclin K (Homo sapiens, UniProt P50750); experiment: NanoBRET live-cell target engagement, NanoLuc-CDK9/Cyclin K in HEK-293; settings: CDK9/K, 10µM
CDK11A/Cyclin L2 = target: T1, CDK11A/Cyclin L2 (Homo sapiens, UniProt Q9UQ88); experiment: NanoBRET live-cell target engagement, CDK11A-NanoLuc/Cyclin L2 in HEK-293; settings: read-out: Inhibition at 10µM (%) Average, CDK11a/L2; 10µM; average of replicates
T1 sequence (Q9UQ88 1-783): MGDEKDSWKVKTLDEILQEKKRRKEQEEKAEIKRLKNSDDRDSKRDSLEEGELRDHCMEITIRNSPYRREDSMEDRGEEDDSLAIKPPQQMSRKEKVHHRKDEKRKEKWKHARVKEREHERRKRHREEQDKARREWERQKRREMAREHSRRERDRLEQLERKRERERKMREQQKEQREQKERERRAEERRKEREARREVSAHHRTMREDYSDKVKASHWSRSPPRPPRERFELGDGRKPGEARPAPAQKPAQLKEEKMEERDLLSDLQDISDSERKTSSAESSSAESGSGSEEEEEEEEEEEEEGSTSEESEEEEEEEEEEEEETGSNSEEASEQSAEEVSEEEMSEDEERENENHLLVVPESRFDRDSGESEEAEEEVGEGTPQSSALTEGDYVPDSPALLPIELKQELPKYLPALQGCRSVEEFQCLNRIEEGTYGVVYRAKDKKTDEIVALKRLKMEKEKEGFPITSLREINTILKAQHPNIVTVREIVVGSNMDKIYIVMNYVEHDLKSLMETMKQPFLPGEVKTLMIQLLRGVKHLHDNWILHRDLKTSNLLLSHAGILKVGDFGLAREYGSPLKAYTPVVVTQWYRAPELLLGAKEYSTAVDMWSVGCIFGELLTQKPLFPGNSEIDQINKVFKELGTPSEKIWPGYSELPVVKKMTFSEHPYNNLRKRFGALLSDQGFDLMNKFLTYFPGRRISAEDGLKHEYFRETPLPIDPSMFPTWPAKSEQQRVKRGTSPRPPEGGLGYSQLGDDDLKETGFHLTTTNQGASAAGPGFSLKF

[1] = average of replicates, read-out: Inhibition at 10µM (%) Average
[2] = read-out: Inhibition at 10µM (%) Replicate 1
[3] = read-out: Inhibition at 10µM (%) Replicate 2
[4] = n=3 average ± SEM, n=2 average to 2 significant figures, read-out: IC50 (nM) Average*
[5] = read-out: IC50 (nM) Replicate 1
[6] = read-out: IC50 (nM) Replicate 2
[7] = read-out: IC50 (nM) Replicate 3

Sequence of CDK6/Cyclin D1 (Q00534 whole entry): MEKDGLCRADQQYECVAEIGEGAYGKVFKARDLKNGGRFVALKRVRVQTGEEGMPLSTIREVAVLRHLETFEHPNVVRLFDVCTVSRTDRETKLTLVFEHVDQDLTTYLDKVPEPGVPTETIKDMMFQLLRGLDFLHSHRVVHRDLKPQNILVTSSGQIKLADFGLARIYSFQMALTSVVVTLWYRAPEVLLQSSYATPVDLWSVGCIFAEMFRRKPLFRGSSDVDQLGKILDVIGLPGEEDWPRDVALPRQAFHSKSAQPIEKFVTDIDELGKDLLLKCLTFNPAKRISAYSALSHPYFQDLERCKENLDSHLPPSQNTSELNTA
Sequence of CDK6/Cyclin D1 (P24385 whole entry partner): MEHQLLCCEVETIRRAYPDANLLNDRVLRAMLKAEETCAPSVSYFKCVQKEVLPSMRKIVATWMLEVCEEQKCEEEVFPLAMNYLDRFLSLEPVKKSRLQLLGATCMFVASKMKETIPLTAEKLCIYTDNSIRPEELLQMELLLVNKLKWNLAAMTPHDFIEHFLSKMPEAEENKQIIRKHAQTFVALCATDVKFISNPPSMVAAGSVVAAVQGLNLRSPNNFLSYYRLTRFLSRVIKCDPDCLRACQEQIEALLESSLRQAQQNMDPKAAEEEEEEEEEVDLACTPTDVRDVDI
Sequence of CDK8/Cyclin C (P49336 whole entry): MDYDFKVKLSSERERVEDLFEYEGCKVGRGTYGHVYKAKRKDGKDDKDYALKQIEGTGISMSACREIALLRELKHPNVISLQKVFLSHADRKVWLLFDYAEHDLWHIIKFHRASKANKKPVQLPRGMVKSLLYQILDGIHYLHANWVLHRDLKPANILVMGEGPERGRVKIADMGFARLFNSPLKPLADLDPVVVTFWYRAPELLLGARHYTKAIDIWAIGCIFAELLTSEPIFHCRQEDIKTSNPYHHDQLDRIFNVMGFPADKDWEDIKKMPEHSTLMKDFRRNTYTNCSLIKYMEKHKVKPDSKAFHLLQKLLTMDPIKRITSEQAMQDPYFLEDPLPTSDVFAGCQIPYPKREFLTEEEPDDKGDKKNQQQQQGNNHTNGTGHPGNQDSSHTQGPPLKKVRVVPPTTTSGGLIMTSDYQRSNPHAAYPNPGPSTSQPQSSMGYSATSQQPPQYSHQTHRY
Sequence of CDK8/Cyclin C (P24863 whole entry partner): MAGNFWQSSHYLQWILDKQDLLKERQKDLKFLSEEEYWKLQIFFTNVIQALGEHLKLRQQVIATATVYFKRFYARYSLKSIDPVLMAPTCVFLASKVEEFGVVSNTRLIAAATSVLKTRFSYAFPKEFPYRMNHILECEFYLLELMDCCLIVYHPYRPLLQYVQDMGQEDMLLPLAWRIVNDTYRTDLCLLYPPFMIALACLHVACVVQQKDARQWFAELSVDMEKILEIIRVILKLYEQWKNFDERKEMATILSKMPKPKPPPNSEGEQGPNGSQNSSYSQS
Sequence of CDK5/CDK5R1 (Q00535 whole entry): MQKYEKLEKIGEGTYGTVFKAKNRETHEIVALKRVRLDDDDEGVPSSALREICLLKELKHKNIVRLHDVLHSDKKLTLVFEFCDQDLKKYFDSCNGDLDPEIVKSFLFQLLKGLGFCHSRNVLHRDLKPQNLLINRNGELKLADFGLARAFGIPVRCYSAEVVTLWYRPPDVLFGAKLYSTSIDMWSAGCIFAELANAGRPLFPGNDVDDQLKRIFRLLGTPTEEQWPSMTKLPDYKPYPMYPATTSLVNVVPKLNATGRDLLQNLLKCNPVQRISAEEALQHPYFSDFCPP
Sequence of CDK5/CDK5R1 (Q15078 whole entry partner): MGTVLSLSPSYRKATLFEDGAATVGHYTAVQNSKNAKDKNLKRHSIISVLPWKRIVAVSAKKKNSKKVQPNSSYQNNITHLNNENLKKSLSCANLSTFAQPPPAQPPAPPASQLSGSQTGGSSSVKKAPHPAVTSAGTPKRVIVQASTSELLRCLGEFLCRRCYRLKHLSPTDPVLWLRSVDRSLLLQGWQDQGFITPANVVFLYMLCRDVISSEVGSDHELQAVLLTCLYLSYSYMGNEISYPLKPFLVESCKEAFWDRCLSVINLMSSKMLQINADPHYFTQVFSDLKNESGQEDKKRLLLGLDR
Sequence of CDK4/Cyclin D1 (P11802 whole entry): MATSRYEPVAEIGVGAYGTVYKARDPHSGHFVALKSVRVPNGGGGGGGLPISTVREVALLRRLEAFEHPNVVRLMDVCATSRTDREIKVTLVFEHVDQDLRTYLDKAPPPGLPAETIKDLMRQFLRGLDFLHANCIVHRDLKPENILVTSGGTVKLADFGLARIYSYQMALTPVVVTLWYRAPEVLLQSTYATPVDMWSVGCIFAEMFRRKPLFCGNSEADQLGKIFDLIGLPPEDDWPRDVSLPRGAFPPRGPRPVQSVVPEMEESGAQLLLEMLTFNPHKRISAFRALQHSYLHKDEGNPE
Sequence of CDK4/Cyclin D1 (P24385 whole entry partner): as the sequence (P24385 whole entry partner) above
Sequence of CDK3/Cyclin E1 (Q00526 whole entry): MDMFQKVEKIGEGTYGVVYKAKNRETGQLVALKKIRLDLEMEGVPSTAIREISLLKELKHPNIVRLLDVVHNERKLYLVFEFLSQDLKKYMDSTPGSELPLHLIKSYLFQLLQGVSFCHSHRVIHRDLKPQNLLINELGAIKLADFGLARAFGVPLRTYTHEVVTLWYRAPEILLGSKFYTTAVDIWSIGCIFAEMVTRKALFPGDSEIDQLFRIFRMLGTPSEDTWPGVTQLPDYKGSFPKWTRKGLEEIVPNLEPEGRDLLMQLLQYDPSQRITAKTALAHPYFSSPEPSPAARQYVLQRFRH
Sequence of CDK3/Cyclin E1 (P24864 whole entry partner): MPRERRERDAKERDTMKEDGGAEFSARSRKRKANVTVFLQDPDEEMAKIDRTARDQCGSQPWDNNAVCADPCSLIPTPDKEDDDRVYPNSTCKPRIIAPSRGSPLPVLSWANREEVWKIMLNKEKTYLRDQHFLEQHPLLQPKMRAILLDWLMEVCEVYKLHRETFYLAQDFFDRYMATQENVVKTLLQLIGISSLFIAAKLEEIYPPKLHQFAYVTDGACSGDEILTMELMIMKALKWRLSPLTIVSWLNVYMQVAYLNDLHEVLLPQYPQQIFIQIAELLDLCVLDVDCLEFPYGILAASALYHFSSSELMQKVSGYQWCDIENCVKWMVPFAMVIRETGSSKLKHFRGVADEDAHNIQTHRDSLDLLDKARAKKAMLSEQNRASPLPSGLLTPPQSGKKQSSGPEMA
Sequence of CDK1/Cyclin E1 (P06493 whole entry): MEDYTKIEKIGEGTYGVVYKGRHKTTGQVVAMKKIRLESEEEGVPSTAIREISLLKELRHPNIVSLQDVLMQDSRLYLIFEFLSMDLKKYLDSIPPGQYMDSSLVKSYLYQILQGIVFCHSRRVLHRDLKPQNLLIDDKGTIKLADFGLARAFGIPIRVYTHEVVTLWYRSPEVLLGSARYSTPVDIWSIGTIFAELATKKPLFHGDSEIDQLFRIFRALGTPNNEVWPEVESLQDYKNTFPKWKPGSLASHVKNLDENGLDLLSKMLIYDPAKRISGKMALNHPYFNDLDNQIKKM
Sequence of CDK1/Cyclin E1 (P24864 whole entry partner): as the sequence (P24864 whole entry partner) above
Sequence of CDK9/Cyclin K (P50750 whole entry): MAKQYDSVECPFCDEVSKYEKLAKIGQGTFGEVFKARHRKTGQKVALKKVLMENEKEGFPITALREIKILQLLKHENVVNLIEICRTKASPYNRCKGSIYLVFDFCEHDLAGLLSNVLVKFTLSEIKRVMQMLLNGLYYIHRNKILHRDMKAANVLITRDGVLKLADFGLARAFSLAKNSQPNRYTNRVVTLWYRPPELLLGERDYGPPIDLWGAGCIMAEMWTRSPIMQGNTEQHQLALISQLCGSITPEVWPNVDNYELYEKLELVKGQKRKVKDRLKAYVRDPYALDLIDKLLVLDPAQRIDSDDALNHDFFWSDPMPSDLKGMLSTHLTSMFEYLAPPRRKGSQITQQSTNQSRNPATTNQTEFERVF
Sequence of CDK9/Cyclin K (O75909 whole entry partner): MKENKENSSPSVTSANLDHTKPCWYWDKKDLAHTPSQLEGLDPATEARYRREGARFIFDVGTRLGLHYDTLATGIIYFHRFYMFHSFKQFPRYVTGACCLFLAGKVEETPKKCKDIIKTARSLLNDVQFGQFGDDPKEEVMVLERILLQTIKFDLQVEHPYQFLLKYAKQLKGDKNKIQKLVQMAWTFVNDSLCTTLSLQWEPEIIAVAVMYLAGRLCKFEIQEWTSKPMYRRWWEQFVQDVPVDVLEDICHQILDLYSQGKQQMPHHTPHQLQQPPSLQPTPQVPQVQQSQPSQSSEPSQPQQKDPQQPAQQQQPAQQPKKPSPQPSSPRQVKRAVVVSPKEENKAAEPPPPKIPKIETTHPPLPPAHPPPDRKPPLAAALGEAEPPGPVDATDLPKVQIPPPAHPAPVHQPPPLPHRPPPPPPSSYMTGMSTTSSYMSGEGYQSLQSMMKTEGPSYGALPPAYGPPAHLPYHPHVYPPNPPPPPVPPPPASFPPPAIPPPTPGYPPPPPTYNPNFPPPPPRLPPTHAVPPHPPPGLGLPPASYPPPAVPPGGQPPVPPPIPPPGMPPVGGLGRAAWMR

`C[C@H]1CC[C@H](n2c3cnccc3c3cnc(Nc4ccc5c(n4)CCN(C(=O)CO)C5)nc32)CC1` [AMG 925] gave an inhibition at 10 µM (CDK1/Cyclin E1; [1]) of 34.5%, an inhibition at 10 µM (CDK1/Cyclin E1; [2]) of 45.4% and an inhibition at 10 µM (CDK1/Cyclin E1; [3]) of 23.6%. The inhibition at 10 µM (CDK2/Cyclin E1; [1]) was 63.9%, the inhibition at 10 µM (CDK2/Cyclin E1; [2]) was 40.8% and the inhibition at 10 µM (CDK2/Cyclin E1; [3]) was 87%. For the same compound, the IC50 (CDK2/Cyclin E1; [4]) was 310 ± 70 nM, the IC50 (CDK2/Cyclin E1; [5]) was 171 nM and the IC50 (CDK2/Cyclin E1; [6]) was 400 nM. For the same compound, the IC50 (CDK2/Cyclin E1; [7]) was 370 nM, the inhibition at 10 µM (CDK3/Cyclin E1; read-out: Inhibition at 10µM (%) Average, CDK3/E1, average of replicates) was 54.2% and the inhibition at 10 µM (CDK3/Cyclin E1; read-out: Inhibition at 10µM (%) Replicate 1, CDK3/E1) was 39.2%. The inhibition at 10 µM (CDK3/Cyclin E1; read-out: Inhibition at 10µM (%) Replicate 2, CDK3/E1) was 69.3%, the inhibition at 10 µM (CDK4/Cyclin D1; [1]) was 92.7% and the inhibition at 10 µM (CDK4/Cyclin D1; [2]) was 97.7%. For the same compound, the inhibition at 10 µM (CDK4/Cyclin D1; [3]) was 87.7%, the IC50 (CDK4/Cyclin D1; [4]) was 6 ± 2 nM and the IC50 (CDK4/Cyclin D1; [5]) was 3.2 nM. It also gave an IC50 (CDK4/Cyclin D1; [6]) of 4.9 nM, an IC50 (CDK4/Cyclin D1; [7]) of 11 nM and an inhibition at 10 µM (CDK5/CDK5R1; [1]) of 22.1%. For the same compound, the inhibition at 10 µM (CDK5/CDK5R1; [2]) was 24.7%, the inhibition at 10 µM (CDK5/CDK5R1; [3]) was 19.6% and the inhibition at 10 µM (CDK6/Cyclin D1; [1]) was 99.1%. It also gave an inhibition at 10 µM (CDK6/Cyclin D1; [2]) of 98.6%, an inhibition at 10 µM (CDK6/Cyclin D1; [3]) of 99.5% and an IC50 (CDK6/Cyclin D1; [4]) of 7 ± 3 nM. For the same compound, the IC50 (CDK6/Cyclin D1; [5]) was 2.5 nM, the IC50 (CDK6/Cyclin D1; [6]) was 3.9 nM and the IC50 (CDK6/Cyclin D1; [7]) was 13 nM. It also gave an inhibition at 10 µM (CDK8/Cyclin C; [1]) of 12.6%, an inhibition at 10 µM (CDK8/Cyclin C; [2]) of 13.8% and an inhibition at 10 µM (CDK8/Cyclin C; [3]) of 11.5%. It also gave an inhibition at 10 µM (CDK9/Cyclin K; [1]) of 39.8%, an inhibition at 10 µM (CDK9/Cyclin K; [2]) of 12.7% and an inhibition at 10 µM (CDK9/Cyclin K; [3]) of 67%. For the same compound, the inhibition at 10 µM (CDK11A/Cyclin L2) was 6.7%.
